Read-outs that look alike come from different tables or passages of the source.
How the values were obtained:
[1] = system: HCV replicon (HCV 1b-377-neo replicon cells); experiment: HCV replicon cell line FRET assay; type: cell-based; conditions: Hepatitis C virus
[2] = human
[3] = Alamar blue cytotoxicity (CC50), wild-type replicon cells; type: cell-based; conditions: human, Huh-7 cells carrying the wild-type HCV 377-neo replicon; Wild-type replicon cell line
[4] = system: wild-type Blast/Luciferase HCV replicon; type: cell-based; conditions: 0.5 μM Compound 124
[5] = read-out: Replicon Inhibition Range EC50
[6] = Wild-type replicon cell line, FRET assay, read-out: EC50
[7] = HCV replicon cell line, FRET assay, read-out: Replicon Inhibition Range EC50

## C[C@H](NC(=O)OCc1ccccc1)C(=O)Nc1ccc(C2S/C(=N\c3cccc(F)c3)N(Cc3ccco3)C2=O)cc1 (stereo partly drawn) [Compound 1, (1S-(4-[2-(3-Fluorophenylimino)-3-furan-2-ylmethyl-4-oxo-thiazolidin-5-yl]-phenylcarbamoyl)ethyl)carbamic acid benzyl ester]
[1]; [5]
  EC50: 100 to 1000 nM
[1]; [6]
  EC50: 1500 nM
[2]
  CC50 at 72 h: > 5000 nM
[3]
  CC50 at 72 h: > 5000 nM

## C[C@H](NC(=O)Cc1ccccc1)C(=O)Nc1ccc(C2S/C(=N\c3cccc(F)c3)N(Cc3ccco3)C2=O)cc1 (stereo partly drawn) [Compound 124, (N-{4-[2-(3-fluorophenylimino)-3-furan-2-ylmethyl-4-oxo-thiazolidin-5-yl]phenyl}-2S-(phenylacetylamino))propionamide]
[1]; [5]
  EC50: < 100 nM
[1]; [6]
  EC50: 103 nM
[2]
  CC50 at 72 h: > 5000 nM
[4]
  replication of the replicon in the presence of compound: completely inhibited
[3]
  CC50 at 72 h: > 5000 nM

## CC(C)/N=C1\SC(c2ccc(NC(=O)[C@H](C)NC(=O)[C@@H](C)c3ccccc3)cc2)C(=O)N1Cc1ccccn1 (stereo partly shown) [Compound 121]
[1]; [7]
  EC50: 100 to 1000 nM

## Cc1cnc(CN2C(=O)C(c3ccc(NC(=O)[C@@H]4CCCN4C(=O)OCc4ccccc4)cc3)S/C2=N\c2cccc(F)c2)cn1 (stereo partly shown) [Compound 5]
[1]; [7]
  EC50: < 100 nM

## Cc1cnc(CN2C(=O)C(c3ccc(NC(=O)[C@@H]4CCCN4C(=O)Cc4ccccc4)cc3)S/C2=N\c2ccc(N3CCOCC3)cc2)cn1 (stereo partly shown) [Compound 95]
[1]; [7]
  EC50: < 100 nM

## O=C(Nc1ccc(C2S/C(=N\c3ccc(F)cc3Cl)N(Cc3ccco3)C2=O)cc1)[C@@H]1CCCN1C(=O)OCc1ccccc1 (stereo partly shown) [Compound 59]
[1]; [7]
  EC50: 1000 to 5000 nM

Source: patent US20050069522A1, “Combination pharmaceutical agents as inhibitors of HCV replication” (priority 2002, published 2005)
